From patent US20240158446A1, “CYCLIC COMPOUND HAVING SELECTIVE INHIBITORY ACTION ON KRAS OVER HRAS AND NRAS” (CHUGAI SEIYAKU KABUSHIKI KAISHA, priority 2021, published 2024)

Assays:
[1] = target: GDP-bound KRAS wild-type protein (Homo sapiens, UniProt P01116); experiment: Binding to KRAS by surface plasmon resonance (SPR), Single Cycle Kinetics; conditions: SPR Single Cycle Kinetics, GDP-bound KRAS wild-type protein, 1:1 binding model; read-out: KRAS KD
[2] = target: GDP-bound NRAS wild-type protein (Homo sapiens, UniProt P01111); experiment: Binding to NRAS by surface plasmon resonance (SPR), Single Cycle Kinetics; conditions: SPR KD ratio NRAS/KRAS, class symbols
GDP-bound NRAS wild-type protein, sequence (P01111 whole entry): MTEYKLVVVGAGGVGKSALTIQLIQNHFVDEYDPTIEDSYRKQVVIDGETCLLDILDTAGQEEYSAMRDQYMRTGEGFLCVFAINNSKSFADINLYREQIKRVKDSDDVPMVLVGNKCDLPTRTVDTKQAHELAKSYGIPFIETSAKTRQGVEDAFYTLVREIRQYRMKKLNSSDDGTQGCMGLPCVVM

[3] = target: GDP-bound HRAS wild-type protein (Homo sapiens, UniProt P01112); experiment: Binding to HRAS by surface plasmon resonance (SPR), Single Cycle Kinetics; conditions: SPR KD ratio HRAS/KRAS, class symbols
GDP-bound HRAS wild-type protein, sequence (P01112 whole entry): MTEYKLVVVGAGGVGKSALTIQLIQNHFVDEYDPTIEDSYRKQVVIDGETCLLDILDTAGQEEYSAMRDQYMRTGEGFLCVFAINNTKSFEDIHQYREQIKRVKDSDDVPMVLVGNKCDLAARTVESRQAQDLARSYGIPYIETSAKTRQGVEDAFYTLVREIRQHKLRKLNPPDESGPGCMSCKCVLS

[4] = tested on: human lung cancer strain NCI-H441;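 also: cell proliferation inhibition after four days measured by CellTiter-Glo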

GDP-bound KRAS wild-type protein, sequence (P01116 whole entry): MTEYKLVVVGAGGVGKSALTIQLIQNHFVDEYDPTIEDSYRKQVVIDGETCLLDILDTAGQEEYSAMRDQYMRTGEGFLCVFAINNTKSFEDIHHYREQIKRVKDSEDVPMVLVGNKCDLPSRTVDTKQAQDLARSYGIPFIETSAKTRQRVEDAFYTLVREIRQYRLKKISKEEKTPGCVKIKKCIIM

| SMILES | Kd [1] | NRAS/KRAS (ratio of KD value with respect to GDP-bound NRAS wild-type protein to KD value with respect to KRAS) [2] | HRAS/KRAS (ratio of KD value with respect to GDP-bound HRAS wild-type protein to KD value with respect to KRAS) [3] | IC50 [4] |
| --- | --- | --- | --- | --- |
| CCC[C@H]1C(=O)N[C@@H](CC(C)C)C(=O)N(CC)CC(=O)N(C)[C@H]2C/C=C\CCN(C2=O)[C@@H](Cc2ccc(C)cc2)C(=O)N(C)CC(=O)N[C@@H](CCc2cc(F)c(C(F)(F)F)c(F)c2)C(=O)N2C[C@H](OCC)C[C@H]2C(=O)NC2(CCC2)C(=O)N(C)[C@@H](C2CCCC2)C(=O)N(C)[C@H](C(=O)N(C)C)CC(=O)N1C [PP2539] | 4.3 nM | A (a compound having 10 or more and less than 20 is denoted as A) | B (a compound having 3 or more and less than 10 is denoted as B) | 330 nM |
| CCC[C@H]1C(=O)N[C@@H](CC(C)C)C(=O)N(CC)CC(=O)N(C)[C@H]2C/C=C\CCN(C2=O)[C@@H](Cc2ccc(C)cc2)C(=O)N(C)CC(=O)N[C@@H](CCc2ccc(C(F)(F)F)c(OC)c2)C(=O)N2C[C@H](OCC)C[C@H]2C(=O)NC2(CCC2)C(=O)N(C)[C@@H](C2CCCC2)C(=O)N(C)[C@H](C(=O)N(C)C)CC(=O)N1C [PP2540] | 4.6 nM | A (a compound having 10 or more and less than 20 is denoted as A) | B (a compound having 3 or more and less than 10 is denoted as B) | 562 nM |
| CCC[C@H]1C(=O)N[C@@H](CC(C)C)C(=O)N(CCOC)CC(=O)N(C)[C@H]2C/C=C\CCN(C2=O)[C@@H](Cc2ccc(C)cc2)C(=O)N(C)CC(=O)N[C@@H](CCc2cc(F)c(C(F)(F)F)c(F)c2)C(=O)N2C[C@H](OCC)C[C@H]2C(=O)NC2(CCC2)C(=O)N(C)[C@@H](C2CCCC2)C(=O)N(C)[C@H](C(=O)N(C)C)CC(=O)N1C [PP2541] | 4.9 nM | A (a compound having 10 or more and less than 20 is denoted as A) | B (a compound having 3 or more and less than 10 is denoted as B) | 374 nM |
| CCC[C@H]1C(=O)N[C@@H](CC(C)C)C(=O)N(CCOC)CC(=O)N(C)[C@H]2C/C=C\CCN(C2=O)[C@@H](Cc2ccc(C)cc2)C(=O)N(C)CC(=O)N[C@@H](CCc2ccc(C(F)(F)F)c(OC)c2)C(=O)N2C[C@H](OCC)C[C@H]2C(=O)NC2(CCC2)C(=O)N(C)[C@@H](C2CCCC2)C(=O)N(C)[C@H](C(=O)N(C)C)CC(=O)N1C [PP2542] | 4.6 nM | B (a compound having 3 or more and less than 10 is denoted as B) | B (a compound having 3 or more and less than 10 is denoted as B) | 394 nM |
| CCC[C@H]1C(=O)N[C@@H](CC(C)C)C(=O)N(CC)CC(=O)N(C)[C@H]2C/C=C\CCN(C2=O)[C@@H](Cc2ccc(C)cc2)C(=O)N(C)CC(=O)N[C@@H](CCc2ccc(C(F)(F)F)c(Cl)c2)C(=O)N2C[C@H](OCC)C[C@H]2C(=O)NC2(CCC2)C(=O)N(C)[C@@H](C2CCCC2)C(=O)N(C)[C@H](C(=O)N(C)C)CC(=O)N1C [PP2545] | 4.3 nM | A (a compound having 10 or more and less than 20 is denoted as A) | A (a compound having 10 or more and less than 20 is denoted as A) | 279 nM |
| CCC[C@H]1C(=O)N[C@@H](CC(C)C)C(=O)N(CCOC)CC(=O)N(C)[C@H]2C/C=C\CCN(C2=O)[C@@H](Cc2ccc(C)cc2)C(=O)N(C)CC(=O)N[C@@H](CCc2ccc(C(F)(F)F)c(Cl)c2)C(=O)N2C[C@H](OCC)C[C@H]2C(=O)NC2(CCC2)C(=O)N(C)[C@@H](C2CCCC2)C(=O)N(C)[C@H](C(=O)N(C)C)CC(=O)N1C [PP2546] | 4.7 nM | B (a compound having 3 or more and less than 10 is denoted as B) | B (a compound having 3 or more and less than 10 is denoted as B) | 295 nM |
| CCC[C@H]1C(=O)N[C@@H](CC(C)C)C(=O)N2C[C@@H](OC)C[C@H]2C(=O)N(C)[C@H]2C/C=C\CCN(C2=O)[C@@H](Cc2ccc(C)cc2)C(=O)N(C)CC(=O)N[C@@H](CCc2cc(F)c(C(F)(F)F)c(F)c2)C(=O)N2C[C@H](OCC)C[C@H]2C(=O)NC2(CCC2)C(=O)N(C)[C@@H](C2CCCC2)C(=O)N(C)[C@H](C(=O)N(C)C)CC(=O)N1C [PP2547] | 4.4 nM | A (a compound having 10 or more and less than 20 is denoted as A) | B (a compound having 3 or more and less than 10 is denoted as B) | 1060 nM |
| CCC[C@H]1C(=O)N[C@@H](CC(C)C)C(=O)N2C[C@@H](OC)C[C@H]2C(=O)N(C)[C@H]2C/C=C\CCN(C2=O)[C@@H](Cc2ccc(C)cc2)C(=O)N(C)CC(=O)N[C@@H](CCc2ccc(C(F)(F)F)c(OC)c2)C(=O)N2C[C@H](OCC)C[C@H]2C(=O)NC2(CCC2)C(=O)N(C)[C@@H](C2CCCC2)C(=O)N(C)[C@H](C(=O)N(C)C)CC(=O)N1C [PP2548] | 7.8 nM | A (a compound having 10 or more and less than 20 is denoted as A) | B (a compound having 3 or more and less than 10 is denoted as B) | 1050 nM |
| CCC[C@H]1C(=O)N[C@@H](CC(C)C)C(=O)N2C[C@@H](OC)C[C@H]2C(=O)N(C)[C@H]2C/C=C\CCN(C2=O)[C@@H](Cc2ccc(C)cc2)C(=O)N(C)CC(=O)N[C@@H](CCc2ccc(C(F)(F)F)c(Cl)c2)C(=O)N2C[C@H](OCC)C[C@H]2C(=O)NC2(CCC2)C(=O)N(C)[C@@H](C2CCCC2)C(=O)N(C)[C@H](C(=O)N(C)C)CC(=O)N1C [PP2549] | 6 nM | A (a compound having 10 or more and less than 20 is denoted as A) | B (a compound having 3 or more and less than 10 is denoted as B) | 506 nM |
| CCC[C@H]1C(=O)N[C@@H]([C@@H](C)CC)C(=O)N2C[C@@H](OC)C[C@H]2C(=O)N(C)[C@H]2C/C=C\CCN(C2=O)[C@@H](Cc2ccc(C)cc2)C(=O)N(C)CC(=O)N[C@@H](CCc2cc(F)c(C(F)(F)F)c(F)c2)C(=O)N2C[C@H](OCC)C[C@H]2C(=O)NC2(CCC2)C(=O)N(C)[C@@H](C2CCCC2)C(=O)N(C)[C@H](C(=O)N(C)C)CC(=O)N1C [PP2550] | 0.29 nM | A (a compound having 10 or more and less than 20 is denoted as A) | B (a compound having 3 or more and less than 10 is denoted as B) | 38.5 nM |
| CCC[C@H]1C(=O)N[C@@H](CC(C)C)C(=O)N2C[C@@H](OC)C[C@H]2C(=O)N(C)[C@H]2C/C=C\CCN(C2=O)[C@@H](Cc2ccc(C)cc2)C(=O)N(C)CC(=O)N[C@@H](CCc2cc(F)c(C(F)(F)F)c(F)c2)C(=O)N2C[C@H](OCC)C[C@H]2C(=O)NC2(CC(C)(C)C2)C(=O)N(C)[C@@H](C2CCCC2)C(=O)N(C)[C@H](C(=O)N(C)C)CC(=O)N1C [PP2553] | 3.4 nM | A (a compound having 10 or more and less than 20 is denoted as A) | B (a compound having 3 or more and less than 10 is denoted as B) | 121 nM |
